This is an account of results in patent US12564609B2, “Hematopoietic stem cell engraftment with a combination of agents” (The Board of Trustees of the Leland Stanford Junior …, priority 2020, dated 2026).

The subject of series [1] is hematopoietic stem and progenitor cells. Description: In vivo depletion of blood, spleen and bone marrow cells by AZA. More on the design: species or system C57BL/6 mice. The following applies: AZA 5 mg/kg/d for 5 days. How it is done: A. Schematic of treatment protocol. C57BL/6 mice were injected with 5-Azacytidine (AZA) in dose 5 mg/kg/d for 5 consecutive days. Peripheral blood, bone marrow (BM) and spleen were analyzed on days 6, 10 and 15 and 20 after start AZA treatment. B. Peripheral blood cell counts in untreated mice as compared to AZA-treated mice at day 6, 10 and 20 following AZA treatment. Hemoglobin (Hb); white blood cells (WBC). C. Total live cells in bone marrow (BM) and spleen of untreated mice and AZA-treated mice at day 6, 10, 15 and 20 after start AZA treatment. D. Hematoxylin and eosin staining of bone marrow section from mouse femur at day 6 after treatment with AZA 5 mg/kg/d for 5 days as compared to untreated control. Magnification 100 μm. E. Representative flow cytometric analysis of the hematopoietic stem and progenitor cell (HSPC) compartment in the BM of untreated and AZA-treated mice at day 6, 10, 15 and 20. […] Lin^−Sca1^+ c-Kit^+ cells (LSK), multipotent progenitors (MPP), long-term hematopoietic stem cells (LT-HSC), short-term HSC (ST-HSC). F. Absolute number of the different HSPC compartments at day 6, 10, 15 and 20 after start of AZA treatment as compared to untreated control mice. Lin^−Sca1^+c-Kit^+ (LSK); LSKCD150^+CD48^− (LT-HSC), LSKCD150^−CD48^− (ST-HSC), LSKCD150^+CD48^+ (MPP2), LSKCD150^−CD48^+Flt3^− (MPP3), LSKCD150^−CD48^+Flt3^+ (MPP4). Data in (B), (C) and (F) represent mean±SD (n=4 per group per timepoint). Statistics were calculated with Mann-Whitney test (*P<0.05).
(§1) Mice. C57BL/6 (B6) mice (H-2^b, Thy1.1, CD45.1/CD45.2) were recipients and B6 mice (H-2^b, Thy1.1, CD45.1) were donors for the congenic transplant experiments. BALB.B (H-2^b, Thy1.2, CD45.2) mice were used as recipients and B6 mice (H-2^b, Thy1.1, CD45.1) as donors for […] (allogeneic) transplant experiments. Recipients were >8 weeks old and donors were 8-12 weeks old at timepoint of transplantation. B6 (H-2^b, Thy1.1, CD45.2) mice were used for in vivo depletion studies. Mice were bred and maintained under pathogen free conditions at the Stanford University Research Animal Facility. All experiments were performed under a protocol approved by the Stanford Administrative Panel on Laboratory Animal Care.
In vivo administration of therapeutic agents and cytokines. Anti-mouse CD117 mAbs, clone ACK2 (BioXcell) and 2B8 (BioXcell), were injected retroorbital as a single dose of 500 μg following intraperitoneal administration of Diphenhydramine (Benadryl). Anti CD4 (clone GK1.5, BioXcell) and anti-CD8 (clone YTS169.4, BioXcell) were administered intraperitoneally at a dose of 100 μg in 100 μl phosphate-buffered saline (PBS). […] Before each injection, AZA was thawed for 10-15 min at room temperature (RT), resuspended in PBS and administered intraperitoneally in 100 μl. Recombinant murine SCF (PeproTech), dissolved in deionized water to concentration of 10 μg/ml, was injected intraperitoneally at the amount of 1 μg/day.
Flow cytometry. Cells were stained for surface markers and incubated at RT in the dark for 20 min.
Bone marrow and spleen cell preparation for analysis. Mice were euthanized and bone marrow (hips, femurs, tibia, spine) and spleen were harvested. Bones were crushed in PBS+2% bovine calf serum (BCS) into single cell suspensions and filtered through 70-μm filter (Falcon). Spleens were mashed direct in 70-μm filter (Falcon). RBC lysis was performed with ACK lysis buffer for 10 min at RT. Cells were rinsed, filtered again and counted on a Countess automated cell counter (Invitrogen).
Complete blood cell count. 20 μl of whole blood was collected via the tail vein and complete blood counts (CBC) were conducted using Heska HemaTrue Veterinary Hematology Analyzer (Heska).

A further series deals with donor HSC engraftment. Description: Congenic hematopoietic cell transplantation, donor chimerism in peripheral blood. It counts as in vivo, B6 mice.
Text: as §1
In vivo administration of therapeutic agents and cytokines. Anti-mouse CD117 mAbs, clone ACK2 (BioXcell) and 2B8 (BioXcell), were injected retroorbital as a single dose of 500 μg following intraperitoneal administration of Diphenhydramine (Benadryl). Anti CD4 (clone GK1.5, BioXcell) and anti-CD8 (clone YTS169.4, BioXcell) were administered intraperitoneally at a dose of 100 μg in 100 μl phosphate-buffered saline (PBS). […] Before each injection, AZA was thawed for 10-15 min at room temperature (RT), resuspended in PBS and administered intraperitoneally in 100 μl. […]

As for `Nc1ncn([C@@H]2O[C@H](CO)[C@@H](O)[C@H]2O)c(=O)n1` [AZA, 5-Azacytidine], in series [1], the “rebound of splenic myeloid cells to normal levels” value was at most 10 days, the “recovery of BM B cells” value is over 15 days, the “recovery of all blood subsets to normal range values” was at most 20 days and the “recovery of overall BM cellularity” value is at most 10 days. Moreover, in series [1], the “recovery of the ST-HSC fraction in BM” value was over 20 days. Moreover, in series [1] (BM), the “nadir of MPP4 and common lymphoid progenitors (CLP)” value was 10 days; the “recovery of CMP and GMP” value is over 15 days; the “recovery of MEP” value was at most 10 days; the “recovery of MPP4 and CLP” value is at most 20 days. For the same compound, the “myeloid-biased multipotent progenitors MPP2 and MPP3 after BM depletion of HSC” value in series [1] (by day 6) is “rapid expansion”. For the same compound, in series [1] (by day 6, BM), the “depletion of common myeloid progenitors (CMP)” value is listed as over 25 fold, the “depletion of granulocyte-macrophage progenitors (GMP)” value was over 18 fold and the “depletion of megakaryocyte-erythrocyte progenitors (MEP)” value was over 11 fold. Further, in series [1] (day 6), the “reduction of LT-HSC in BM at nadir” value is reported as 15 fold, the “reduction of ST-HSC in BM at nadir” value is on record as 24 fold and the splenic myeloid cells result is “significantly reduced”. For the same compound, the “overall BM cellularity decreased” value in series [1] (day 6, p value=0.0286) came to 80 % from baseline. Besides, the “maximal B cell (CD19) depletion in BM” value in series [1] (day 10) is on record as over 30 fold. Also, in series [1] (days 6, 10, 15 and 20), the “B-cell development in the bone marrow (Hardy fractions)” value is “maturation block at Fraction D and E”. In addition, in series [1] (peripheral blood), the “reduction of granulocytes in blood” value is reported as about 4 fold. Besides, the “day of lowest blood values (Hb, WBC, granulocytes, lymphocytes, monocytes)” value in series [1] (days after initiation of AZA) came out at 10 days. In the series on donor HSC engraftment (AZA 2.5 mg/kg for 5 days, 20×10^6 congenic WBM cells), the “stable engraftment of donor WBM” value is on record as “does not enable stable engraftment”. Further, the myeloid donor chimerism in the series on donor HSC engraftment (single agent AZA 5 mg/kg for 5 days, congenic WBM cells) was 10-15%.
